The target in this test is BRD4-BD1 (Homo sapiens (Human), UniProt O60885). The test can be described thus: AlphaLisa bromodomain binding assay, BRD4-BD1. The text has this: An AlphaLisa assay was used to observe bromodomain binding and measure IC50s for the compounds disclosed herein. An AlphaLisa assay is a bead-based assay used to detect interactions between bromodomains and polyacetylated histone peptides. Donor and acceptor beads bound to target and ligand are brought into proximity by this protein-protein interaction.
Equipment Required • 1. […] Plate centrifuge • 3. Plate shaker • 4. […] Single channel and multi-channel pipettes • 6. Microplate reader (Pherastar)
Stock and Final Assay Concentrations (FAC) • 1. All reference and test compounds are made at a concentration of 10 mM in DMSO. Compounds are serially diluted in DMSO and a FAC starting from 10 μM to 10 point 3 fold serial dilutions is arrived. FAC of DMSO is 1%. • 2. Enzyme stock and FAC
Biotinylated substrate (Acetylated histone H4, biotinylated substrate—cat no. AS64989-025, Anaspec) stock and FAC
• 4. Acceptor and donor beads stock and FAC
Buffers • For the enzyme and substrate dilution following buffer is used (for 50 ml) • HEPES: 50 mM 2.5 ml • NaCl: 25 mM 1.25 ml • DTT: 10 mM 0.05 ml • BSA: 0.1% 0.05 g • MilliQ water: 45.7 ml • For dilution of acceptor and donor beads AlphaLISA 5× epigenetics Buffer Perkin Elmer (Cat: AL008C) is used at 1× concentration.
Procedure • 1. […] Tap the plate gently • 3. […] Cover with plate sealer • 5. […] Incubate the plate at room temperature for 10 minutes • 7. Add 10 μl of the substrate • 8. Cover with plate sealer • 9. […] Cover with plate sealer • 14. […] Cover with plate sealer • 18.
The percent inhibition is calculated in the excel analysis template and the IC50 values are subsequently determined using a sigmoidal dose-response curve (variable slope) using GraphPad Prism® 5 software.

Where [1] appears, read: Table 6, read-out: BRD4(1) IC50.

pIC50: −log10 of the molar value. Like-named read-outs stand apart in the source and are kept apart here.

For `Cc1cnc(NC2CCN(C)CC2)nc1Nc1cccc(NS(=O)(=O)C(C)(C)C)c1`, under setting [1], the pIC50 was 5.87.

Turning to `CN1CCN(c2ccc(Nc3ncc4ccn(-c5cccc(NS(=O)(=O)C(C)(C)C)c5)c4n3)cc2)CC1` [drawing 73], the pIC50 (Table 5, read-out: BRD4 IC50) is 6.66.

Turning to `CC(C)(C)S(=O)(=O)N1CCc2ccc(Nc3nc(NCC4CCNCC4)nc4sccc34)cc21` [drawing 218], the pIC50 under setting [1] was 5.66.

On to `CN(C)C1CCN(c2ccc(Nc3ncc4ccn(-c5ccc(F)c(NS(=O)(=O)C(C)(C)C)c5)c4n3)cc2F)CC1` [drawing 48], for which, where the note is “Table 1, read-out: BRD4 IC50”, the negative logarithm of the IC50 (pIC50) was 7.20.

In the case of `CC(C)(C)S(=O)(=O)N1CCc2ccc(Nc3nc(NC4CCOC4)nc4sccc34)cc21` (stereo not shown), under “Table 2, read-out: BRD4 IC50”, the pIC50 was 5.49.

For the compound `Cc1ccc(Nc2nc(NC3CCN(C)CC3)nc3sccc23)cc1NS(=O)(=O)C(C)(C)C`, under setting [1], the pIC50 is 6.69.

With `CC(C)(C)S(=O)(=O)N1CCc2ccc(Nc3nc(NC4CCNCC4)nc4sccc34)cc21`, the pIC50 under setting [1] is 6.19.

Turning to `Cc1noc(C)c1-c1cccc(-c2c[nH]c3nc(N4CCN(C)CC4)ncc23)c1`, under setting [1], the pIC50 was 5.14.

`O=C(NC1CC1)c1ccn(-c2nc(NC3CCNCC3)nc3sccc23)c1` [drawing 60]: the pIC50 (Table 2, read-out: BRD4 IC50) is 6.40.

Turning to `CNCCNc1ncc2cc(-c3cccc(-c4c(C)noc4C)c3)ccc2n1`, under setting [1], the pIC50 was 5.96.

On to `CC(C)(C)S(=O)(=O)N1CCc2ccc(Nc3nc(NCC4CCNCC4)nc4sccc34)cc21` [drawing 56], for which, where the note is “Table 2, read-out: BRD4 IC50”, the pIC50 is 6.00.

On to `Cc1noc(C)c1-c1ccc2nc(N)sc2c1`, for which the negative logarithm of the IC50 (pIC50) under setting [1] was 5.31.

Regarding `CN1CCN(c2ccc(Nc3ncc4ccn(-c5cccc(NS(=O)(=O)C(C)(C)C)c5)c4n3)cc2)CC1` [drawing 288], under setting [1], the pIC50 is 5.30.

For the compound `CN1CCC(c2ccc(Nc3ncc4ccn(-c5cccc(NS(=O)(=O)C(C)(C)C)c5)c4n3)cc2)CC1`, under setting [1], the pIC50 was 6.24.

With `CN1CCC(NC(=O)c2ccc(Nc3ncc4ccn(-c5cccc(NS(=O)(=O)C(C)(C)C)c5)c4n3)cc2)CC1`, the pIC50 under setting [1] was 6.39.

As for `CC(C)(C)S(=O)(=O)N1CCc2ccc(Nc3nc(Nc4cccnc4)nc4c3COC4)cc21`, under setting [1], the pIC50 was 5.44.

Regarding `O=C1NCCc2c1ccn2-c1cnc(Nc2ccc(F)cc2)nc1`, the pIC50 under setting [1] was 4.95.

With `CC(C)(C)S(=O)(=O)Nc1cccc(Nc2nc(NC3CCNC3)nc3sccc23)c1` (stereo not shown) [drawing 222], the pIC50 under setting [1] is 5.62.

On to `CN1CCN(c2ccc(Nc3ncc4ccn(-c5cccc(NS(=O)(=O)C(C)(C)C)c5)c4n3)cc2)CC1` [drawing 275], for which the pIC50 under setting [1] was 6.62.

For the compound `Cc1ccc(Nc2nc(NC3CCNCC3)nc3sccc23)cc1NS(=O)(=O)C(C)(C)C`, under setting [1], the pIC50 was 6.50.

Regarding `CNCCCOc1ccc(Nc2ncc3ccn(-c4cccc(NS(=O)(=O)C(C)(C)C)c4)c3n2)cc1F` [drawing 448], the pIC50 under setting [1] is 6.47.

As to `CN1CCN(c2ccc(Nc3nc4c(c(Nc5cccc(NS(=O)(=O)C(C)(C)C)c5)n3)COC4)cc2)CC1` [drawing 188], the pIC50 under setting [1] was 6.28.

Consider `CN1CCC(Nc2nc(Nc3ccc4c(c3)N(S(=O)(=O)C(C)(C)C)CC4)c3ccsc3n2)CC1` [drawing 185], for which the pIC50 under setting [1] was 6.66.

Take `CN1CCC(Nc2nc(Nc3ccc4c(c3)N(S(=O)(=O)C(C)(C)C)CC4)c3ccsc3n2)CC1` [drawing 55]: the pIC50 (Table 2, read-out: BRD4 IC50) is 6.80.

Consider `CC(C)(C)S(=O)(=O)Nc1cccc(Nc2nc(NC3CCNCC3)nc3sccc23)c1` [drawing 51], for which the pIC50 (Table 2, read-out: BRD4 IC50) is 7.03.

Regarding `CC(C)(C)S(=O)(=O)N1CCc2ccc(Nc3nc(NC4CCNC4)nc4sccc34)cc21` (stereo not shown) [drawing 58], where the note is “Table 2, read-out: BRD4 IC50”, the pIC50 is 5.59.

With `CN1CCN(c2ccc(Nc3nc4c(c(Nc5ccc6c(c5)N(S(=O)(=O)C(C)(C)C)CC6)n3)COC4)cc2)CC1`, the pIC50 under setting [1] was 5.62.

On to `CC(C)(C)S(=O)(=O)Nc1cccc(Nc2nc(NCC3CCNCC3)nc3sccc23)c1` [drawing 220], for which the pIC50 under setting [1] was 5.57.

Take `CC(C)(C)S(=O)(=O)Nc1ccc(Nc2nc(NC3CCNCC3)nc3sccc23)cc1`: the pIC50 under setting [1] was 5.13.

As to `CNCCCOc1ccc(Nc2ncc3ccn(-c4cccc(NS(=O)(=O)C(C)(C)C)c4)c3n2)cc1F` [drawing 466], the pIC50 under setting [1] was 6.70.

On to `CN1CCC(NC(=O)c2ccc(Nc3ncc4ccn(-c5ccc(F)c(NS(=O)(=O)C(C)(C)C)c5)c4n3)cc2F)CC1` [drawing 47], for which, where the note is “Table 1, read-out: BRD4 IC50”, the pIC50 is 7.03.

On to `CNCCNc1ncc2c(-c3cccc(-c4c(C)noc4C)c3)cn(C)c2n1`, for which, under setting [1], the pIC50 was 5.12.

On to `CC1=NCC(C)=C1C1CCCC(c2c[nH]c3nc(N4CCNCC4)ncc23)C1` (stereo not shown), for which, under setting [1], the pIC50 was 5.39.

`CN1CCN(c2ccc(Nc3nc(Nc4cccc(NS(=O)(=O)C(C)(C)C)c4)c4ccsc4n3)cc2)CC1` [drawing 153]: the pIC50 under setting [1] is 6.22.

As to `CC(C)(C)S(=O)(=O)N1CCc2ccc(Nc3nc(NC4CCNC4)nc4sccc34)cc21` (stereo not shown) [drawing 217], the pIC50 under setting [1] is 5.56.

For the compound `CC(C)(C)S(=O)(=O)N1CCc2ccc(Nc3nc(NC4CCNCC4)nc4c3COC4)cc21`, the pIC50 under setting [1] is 5.80.

For the compound `CC(C)(C)S(=O)(=O)Nc1cccc(Nc2nc(NC3CCNC3)nc3sccc23)c1` (stereo not shown) [drawing 54], the negative logarithm of the IC50 (pIC50) (Table 2, read-out: BRD4 IC50) was 5.77.

Turning to `CC(C)(C)S(=O)(=O)Nc1cccc(Nc2nc(NC3CCNCC3)nc3sccc23)c1` [drawing 49], the pIC50 (Table 1, read-out: BRD4 IC50) is 7.03.

As to `CC(C)(C)S(=O)(=O)Nc1cccc(Nc2nc(NC3CCNCC3)nc3sccc23)c1` [drawing 151], the pIC50 under setting [1] is 7.03.

Turning to `CN1CCC(Nc2nc3c(c(Nc4cccc(NS(=O)(=O)C(C)(C)C)c4)n2)COC3)CC1`, the pIC50 under setting [1] was 5.63.

As to `CC(C)(C)S(=O)(=O)Nc1cc(-n2ccc3cnc(Nc4ccc(N5CCNCC5)c(F)c4)nc32)ccc1F` [drawing 50], the negative logarithm of the IC50 (pIC50) (Table 1, read-out: BRD4 IC50) is 8.22.

Regarding `CNCCNc1ncc2c(-c3cccc(-c4c(C)noc4C)c3)c[nH]c2n1`, the pIC50 under setting [1] was 5.49.

In the case of `CC(C)(C)S(=O)(=O)Nc1cc(-n2ccc3cnc(Nc4ccc(N5CCNCC5)cc4)nc32)ccc1F`, under setting [1], the pIC50 was 6.68.

For the compound `CN1CCC(Nc2nc(-n3ccc(C(=O)NC4CC4)c3)c3ccsc3n2)CC1` [drawing 230], under setting [1], the pIC50 was 5.66.

On to `CNc1ncc2c(-c3cccc(-c4c(C)noc4C)c3)c[nH]c2n1`, for which the pIC50 under setting [1] was 5.00.

Take `CN1CCN(c2ccc(Nc3ncc4ccn(-c5ccc(Cl)c(NS(=O)(=O)C6CC6)c5)c4n3)cc2)CC1`: the pIC50 under setting [1] was 5.77.

As for `CN1CCC(Nc2nc(Nc3ccc(Cl)c(NS(=O)(=O)C(C)(C)C)c3)c3ccsc3n2)CC1`, the pIC50 under setting [1] is 6.74.

As to `CC(C)(C)S(=O)(=O)Nc1cccc(Nc2nc(NCC3CCNCC3)nc3sccc23)c1` [drawing 53], the pIC50 (Table 2, read-out: BRD4 IC50) is 5.92.

Take `COc1ccc(Nc2ncc(-n3ccc4c3CCNC4=O)cn2)cc1`: the pIC50 under setting [1] was 5.01.

As to `CN1CCN(c2ccc(Nc3nc4c(c(Nc5cccc(NS(=O)(=O)C(C)(C)C)c5)n3)CCNC4)cc2)CC1`, the pIC50 under setting [1] was 5.49.

Take `CC1(C)CN(Cc2ccccc2)CCC1Nc1nc(Nc2cccc(NS(=O)(=O)C(C)(C)C)c2)c2ccsc2n1` (stereo not shown): the pIC50 under setting [1] was 5.12.

On to `CC(C)(C)S(=O)(=O)Nc1cccc(-n2ccc3cnc(Nc4ccc5c(c4)CCN4CCNCC54)nc32)c1` (stereo not shown), for which the pIC50 under setting [1] is 6.12.

As for `CN1CCC(Nc2nc(Nc3cccc(NS(=O)(=O)C(C)(C)C)c3)c3ccsc3n2)CC1`, the pIC50 under setting [1] is 6.42.

`CN1CCN(c2ccc(Nc3nc(Nc4ccc5c(c4)N(S(=O)(=O)C(C)(C)C)CC5)c4ccsc4n3)cc2)CC1`: the negative-log IC50 (pIC50) under setting [1] was 5.34.

In the case of `CC(C)(C)S(=O)(=O)Nc1cccc(Nc2nc(NC3CCNCC3)nc3sccc23)c1` [drawing 159], the pIC50 under setting [1] is 6.46.

For the compound `COc1cc(Nc2ncc3ccn(-c4ccc(F)c(NS(=O)(=O)C5CC5)c4)c3n2)ccc1N1CCN(C)CC1`, under setting [1], the pIC50 was 6.00.

Regarding `CC(C)(C)S(=O)(=O)Nc1cccc(Nc2nc(NC3CCNCC3)nc3ccsc23)c1`, the pIC50 under setting [1] was 6.22.

Turning to `CC(C)(C)S(=O)(=O)Nc1cccc(Nc2nc(NC3CCNCC3)nc3sccc23)c1` [drawing 237], the negative logarithm of the IC50 (pIC50) under setting [1] is 6.71.

Consider `CN1CCN2c3c(F)cc(Nc4ncc5scc(-c6cccc(NS(=O)(=O)C(C)(C)C)c6)c5n4)cc3CC2C1` (stereo not shown), for which the pIC50 under setting [1] was 5.74.

In the case of `CN1CCC(Nc2nc(Nc3ccc4c(c3)N(S(=O)(=O)C(C)(C)C)CC4)c3sccc3n2)CC1`, the pIC50 under setting [1] is 5.67.

In the case of `Cc1noc(C)c1-c1cccc(-c2cn(C)c3nc(NC4CCNCC4)ncc23)c1`, under setting [1], the pIC50 was 5.36.

For `CN1CCC(Nc2nc(-n3ccc(C(=O)NC4CC4)c3)c3ccsc3n2)CC1` [drawing 59], the pIC50 (Table 2, read-out: BRD4 IC50) was 6.35.

For `CN1CCN(c2cccc(Nc3nc(Nc4cccc(NS(=O)(=O)C(C)(C)C)c4)c4ccsc4n3)c2)CC1`, the pIC50 under setting [1] is 5.30.

As to `Cc1cnc(Nc2ccc(N3CCN(C)CC3)c(F)c2)nc1Nc1ccc2c(c1)N(S(=O)(=O)C(C)(C)C)CC2` [drawing 235], the pIC50 under setting [1] is 6.81.

For `O=C1NCCc2c1ccn2-c1cnc(Nc2ccccc2)nc1`, under setting [1], the pIC50 is 5.75.

On to `CN1CCN(c2ccc(Nc3nc(Nc4cccc(NS(=O)(=O)C(C)(C)C)c4)c4ccsc4n3)cc2)CC1` [drawing 52], for which, for the setting “Table 2, read-out: BRD4 IC50”, the negative-log IC50 (pIC50) is 6.41.

As for `Cc1cnc(Nc2ccc(N3CCN(C)CC3)cc2)cc1Nc1cccc(NS(=O)(=O)C(C)(C)C)c1`, the pIC50 under setting [1] is 5.20.
